Literature values, collected in US20110160154A1, “SUBSTITUTED PIPERAZINES” (Auspex Pharmaceuticals, Inc., priority 2007, published 2011).

How the values were obtained:
[1] = background statement; ranolazine must be taken frequently
[2] = test system: late sodium current (INa); details: literature value (Antzelevitch et al. 2004); read-out: IC50 for inhibition of late sodium current (INa)

In the case of `COc1ccccc1OCC(O)CN1CCN(CC(=O)Nc2c(C)cccc2C)CC1` (centres unmarked) [ranolazine, N-(2,6-dimethyl-phenyl)-2-{4-[2-hydroxy-3-(2-methoxy-phenoxy)-propyl]-piperazin-1-yl}-acetamide], the half-life [1] is given as “less than two” and the IC50 [2] is given as 5 to 21 µM.
